Data: ChEMBL document CHEMBL3244164, “Synthesis and analgesic activity of 1,3-dihydro-3-(substituted phenyl)imidazo[4,5-b]pyridin-2-ones and 3-(substituted phenyl)-1,2,3-triazolo[4,5-b]pyridines” (J Med Chem, 1978)

Experiments:
[1] = tested on: Rattus norvegicus; assay: Analgesic activity in Sprague-Dawley rat normal foot assessed as response threshold at 32 mg/kg, po; format: functional
[2] = tested on: Rattus norvegicus; assay: Analgesic activity in Sprague-Dawley rat brewer's yeast treated foot assessed as response threshold at 32 mg/kg, po; format: functional

Compound | Activity [1] [mm] | Activity [2] [mm]
c1ccc(CCn2nnc3cccnc32)cc1 | <40 | <25
O=c1n(-c2ccc3c(c2)OCO3)c2ncccc2n1S(=O)(=O)c1ccc(F)cc1 | <40 | <25
O=c1[nH]c2cccnc2n1-c1ccc(Cl)cc1 | <40 | <25
C=CCn1c(=O)n(-c2ccc(OC)c(OC)c2)c2ncccc21 | <40 | <25
O=c1[nH]c2cccnc2n1-c1cccc(F)c1 | <40 | <25
c1ccc(Oc2ccc(-n3nnc4cccnc43)cc2)cc1 | <40 | <25
C=CC(C)n1c(=O)n(-c2ccc3c(c2)OCO3)c2ncccc21 (stereo not given) | <40 | <25
O=C(O)Cn1c(=O)n(-c2ccc3c(c2)OCO3)c2ncccc21 | <40 | <25
O=c1[nH]c2cccnc2n1-c1ccc2c(c1)COC2 | <40 | <25
CC(C)=O.O=C(Cn1c(=O)n(-c2ccc3c(c2)OCO3)c2ncccc21)c1ccccc1 | 40 | <25
CCc1ccc(-n2c(=O)[nH]c3cccnc32)cc1 | <40 | <25
COc1ccc(OC)c(-n2nnc3cccnc32)c1 | <40 | <25
C=CCn1c(=O)n(-c2cccc3c2OCO3)c2ncccc21 | <40 | <25
CCOCn1c(=O)n(-c2ccc3c(c2)OCO3)c2ncccc21 | <40 | <25
O=c1[nH]c2cccnc2n1-c1cccc2c1CCCC2 | <40 | <25
COc1cc(-n2nnc3cccnc32)ccc1C | <40 | <25
Clc1ccc(-n2nnc3cccnc32)cc1 | <40 | <25
O=C(O)c1ccc(-n2nnc3cccnc32)cc1 | <40 | <25

Compound | Activity [1] [mm] | Activity [2] [mm]
N#Cc1cccc(-n2nnc3cccnc32)c1 | <40 | <25
c1ccc(-c2nc3cccnc3n2-c2ccc3c(c2)OCO3)cc1 | <40 | <25
Cc1cnc2c(c1)[nH]c(=O)n2-c1ccccc1F | <40 | 25
COc1cccc(-n2nnc3cccnc32)c1 | <40 | <25
FC(F)(F)c1cccc(-n2nnc3cccnc32)c1 | <40 | 25
COc1ccc(-n2c(=O)[nH]c3cccnc32)c(OC)c1 | <40 | <25
Fc1ccc(-n2nnc3cccnc32)cc1 | <40 | <25
c1cnc2c(c1)nnn2-c1ccc2c(c1)COCO2 | <40 | <25
CCC1(CC)Oc2ccc(-n3c(=O)[nH]c4cccnc43)cc2O1 | <40 | <25
C=CCn1c(=O)n(-c2ccc3c(c2)OCO3)c2ccccc21 | <40 | <25
O=C(O)c1cnc2c(c1)[nH]c(=O)n2-c1ccccc1F | <40 | <25
CC(=O)c1ccc(-n2nnc3cccnc32)cc1 | <40 | <25
CCOC(=O)Cn1c(=O)n(-c2ccc3c(c2)OCO3)c2ncccc21 | <40 | <25
C=CCn1c(=O)n(-c2ccc(C)c(OC)c2)c2ncccc21 | <40 | <25
C=CCn1c(=O)n(-c2cccc3c2CCCC3)c2ncccc21 | <40 | <25
O=c1[nH]c2cccnc2n1-c1c(F)cccc1F | <40 | <25
COc1ccc(-n2c(=O)[nH]c3cccnc32)cc1 | <40 | <25
